Data as given in patent US9663543B2 (priority 2014, dated 2017).

These molecules were tested against Human factor D (Homo sapiens (Human), UniProt P00746).
Sequence of Human factor D (P00746 26-253 limits assumed): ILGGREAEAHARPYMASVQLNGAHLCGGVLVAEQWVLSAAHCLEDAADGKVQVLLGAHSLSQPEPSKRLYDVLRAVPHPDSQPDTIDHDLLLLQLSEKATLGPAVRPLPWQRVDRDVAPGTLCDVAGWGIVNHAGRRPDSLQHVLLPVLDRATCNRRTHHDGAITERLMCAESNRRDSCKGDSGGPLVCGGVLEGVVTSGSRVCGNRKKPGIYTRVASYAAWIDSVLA
Format: biochemical
Molecule `CC(=O)c1cn(CC(=O)N2C[C@H](F)C[C@H]2C(=O)NCc2cccc(Cl)c2F)c2cc(P(=O)(O)OCOC(=O)C(C)(C)C)ccc12` [Compound 28, ((3-acetyl-1-(2-((2S,4R)-2-(3-chloro-2-fluorobenzylcarbamoyl)-4-fluoropyrrolidin-1-yl)-2-oxoethyl)-1H-indol-6-yl)(hydroxy)phosphoryloxy) methyl pivalate] has an IC50 of less than 1000 nM.
`CC(=O)c1cn(CC(=O)N2C[C@H](F)C[C@H]2C(=O)NCc2cccc(Cl)c2F)c2cc(P(=O)(O)OCC(F)(F)F)ccc12` [Compound 29, 2,2,2-trifluoroethyl hydrogen 3-acetyl-1-(2-((2S,4R)-2-(3-chloro-2-fluorobenzylcarbamoyl)-4-fluoropyrrolidin-1-yl)-2-oxoethyl)-1H-indol-6-ylphosphonate] gave an IC50 of less than 1000 nM.
`CCOP(=O)(OCC)c1cc2c(cc1F)c(C(C)=O)cn2CC(=O)N1C[C@H](F)C[C@H]1C(=O)NCc1cccc(Cl)c1F` [Compound 30, diethyl 3-acetyl-1-(2-((2S,4R)-2-(3-chloro-2-fluorobenzylcarbamoyl)-4-fluoropyrrolidin-1-yl)-2-oxoethyl)-5-fluoro-1H-indol-6-ylphosphonate] gave an IC50 of less than 1000 nM.
`CC(=O)c1cn(CC(=O)N2C[C@H](F)C[C@H]2C(=O)NCc2cccc(Cl)c2F)c2cc(P(=O)(O)O)c(F)cc12` [Compound 31, 3-acetyl-1-(2-((2S,4R)-2-(3-chloro-2-fluorobenzylcarbamoyl)-4-fluoropyrrolidin-1-yl)-2-oxoethyl)-5-fluoro-1H-indol-6-ylphosphonic acid] showed an IC50 of less than 1000 nM.
`O=C(NCc1cccc(Cl)c1F)[C@@H]1C[C@@H](F)CN1C(=O)Cn1cc(C(=O)C(F)(F)F)c2ccc(P(=O)(O)O)cc21` [Compound 32, 1-(2-((2S,4R)-2-(3-chloro-2-fluorobenzylcarbamoyl)-4-fluoropyrrolidin-1-yl)-2-oxoethyl)-3-(2,2,2-trifluoroacetyl)-1H-indol-6-ylphosphonic acid] showed an IC50 of less than 1000 nM.
